{"source": "patent US4555572A", "about": "“Pyrazolo[3,4,5-kl]acridine compositions and methods for their production and use” (Warner-Lambert Company, priority 1984, dated 1985)", "key": {"[1]": {"tested_on": "lymphocytic leukemia P388", "test": "in vivo lymphocytic leukemia P388 test", "set-up": "species or system CD2 F1 mice", "conditions": "Mus musculus, P388, ip, 120 h, intraperitoneally once daily for five days, read-out: P388 in vivo T/C × 100", "procedure,_shortened": "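CD2 F1 mice (6–7 per group) inoculated i.p. with P388 ascitic cells; compound dosed i.p. once daily for 5 consecutive days after inoculation. Survival followed 30 days; efficacy as treated/control survival time ×100 (≥125 criterion); \"toxic\" if all animals died within 4 days of first dose.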"}, "HCT-8 cells": {"tested_on": "HCT-8 cells", "test": "in vitro proliferating human colon adenocarcinoma (HCA) cell screen, HCT-8", "type": "cell-based", "conditions": "HCT-8 cells, 60 to 65 hours, molar concentration for 50% inhibition of growth, read-out: HCA in vitro ID50 avg.", "procedure,_shortened": "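HCT-8 colon adenocarcinoma cells seeded in RPMI 1640 + 10% FCS, grown 48 h, then exposed to compounds for 60-65 h at 37 °C, 5% CO2. Nuclei counted by Coulter counter after lysis; ID50 is the molar concentration giving 50% growth inhibition.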"}, "Sarcina lutea": {"tested_on": "Sarcina lutea", "test": "in vitro antibacterial/antifungal (ABF) agar-disk diffusion assay", "type": "cell-based", "conditions": "Micrococcus luteus, read-out: ABF zone diameter S. lutea; for zone of inhibition at 500 µg/mL: dose .5 mg/ml; for zone of inhibition at 1000 µg/mL: dose 1 mg/ml", "method": "(§1) (b) Another test protocol is the in vitro antibacterial/antifungal (ABF) test. Compounds are tested for antimicrobial activity in an agar-disk diffusion assay, a standard microbiological technique for testing antibiotics. After incubation of each culture with a test compound, a zone of inhibition is determined. The zone diameter (mm) of active compounds ranges from a minimum of 14 mm to as high as 60 mm, with a greater diameter reflecting higher activity. For convenience, values are reported for (Alcaligenes viscolactis, Sarcina lutea, Branhamella catarrhalis, Bacillus subtilis, and Streptococcus faecalis."}, "Alcaligenes viscolactis": {"tested_on": "Alcaligenes viscolactis", "test": "in vitro antibacterial/antifungal (ABF) agar-disk diffusion assay", "type": "cell-based", "conditions": "read-out: ABF zone diameter A. viscol.; for zone of inhibition at 100 µg/mL: dose .1 mg/ml", "method": "as §1"}, "Streptococcus faecalis": {"tested_on": "Streptococcus faecalis", "test": "in vitro antibacterial/antifungal (ABF) agar-disk diffusion assay", "type": "cell-based", "conditions": "Enterococcus faecalis, read-out: ABF zone diameter S. faecalis; for zone of inhibition at 500 µg/mL: dose .5 mg/ml; for zone of inhibition at 1000 µg/mL: dose 1 mg/ml", "method": "as §1"}, "Branhamella catarrhalis": {"tested_on": "Branhamella catarrhalis", "test": "in vitro antibacterial/antifungal (ABF) agar-disk diffusion assay", "type": "cell-based", "conditions": "Moraxella catarrhalis, read-out: ABF zone diameter B. catarrh.; for zone of inhibition at 100 µg/mL: dose .1 mg/ml; for zone of inhibition at 500 µg/mL: dose .5 mg/ml", "method": "as §1"}, "Bacillus subtilis": {"tested_on": "Bacillus subtilis", "test": "in vitro antibacterial/antifungal (ABF) agar-disk diffusion assay", "type": "cell-based", "conditions": "for zone of inhibition at 100 µg/mL: dose .1 mg/ml", "method": "as §1"}, "[2]": {"conditions": "Bacillus subtilis, read-out: ABF zone diameter B. subtil."}}, "note": "Structures can show the parent of a compound that is named as a salt."}
{"molecule": "CCN(CC)CCn1nc2c3c(c([N+](=O)[O-])ccc31)Nc1ccccc1-2", "note": "[Example 1, N,N-Diethyl-5-nitropyrazolo[3,4,5-kl]acridine-2(6H)-ethanamine, methanesulfonate (1:1)]", "values": [{"measurement": "response vs control in vivo at 2.5 mg/kg", "setting": "[1]; 2.50 mg/kg", "value": 122, "unit": "%"}, {"measurement": "response vs control in vivo at 5 mg/kg", "setting": "[1]; 5.00 mg/kg", "value": 163, "unit": "%"}, {"measurement": "response vs control in vivo at 6.25 mg/kg", "setting": "[1]", "value": 165, "unit": "%"}, {"measurement": "IC50", "setting": "HCT-8 cells", "value": 0.3, "unit": "µM"}, {"measurement": "zone of inhibition at 100 µg/mL", "setting": "Sarcina lutea; dose .1 mg/ml", "value": 14, "unit": "mm"}, {"measurement": "zone of inhibition at 100 µg/mL", "setting": "Alcaligenes viscolactis", "value": 22, "unit": "mm"}, {"measurement": "zone of inhibition at 500 µg/mL", "setting": "Streptococcus faecalis", "value": 17, "unit": "mm"}, {"measurement": "zone of inhibition at 100 µg/mL", "setting": "Branhamella catarrhalis", "value": 17, "unit": "mm"}, {"measurement": "zone of inhibition at 100 µg/mL", "setting": "Bacillus subtilis; [2]", "value": 15, "unit": "mm"}]}
{"molecule": "CCN(CC)CCn1nc2ccc([N+](=O)[O-])c3c2c1-c1ccccc1N3", "note": "[Example 8, yl-5-nitropyrazolo[3,4,5-kl]acridine-1(6H)-ethanamine, monomethanesulfonate]", "values": [{"measurement": "response vs control in vivo at 12.5 mg/kg", "setting": "[1]", "value": 140, "unit": "%"}, {"measurement": "response vs control in vivo at 50 mg/kg", "setting": "[1]", "value": 211, "unit": "%"}, {"measurement": "zone of inhibition at 500 µg/mL", "setting": "Sarcina lutea", "value": 18, "unit": "mm"}, {"measurement": "zone of inhibition at 100 µg/mL", "setting": "Alcaligenes viscolactis", "value": 23, "unit": "mm"}, {"measurement": "zone of inhibition at 500 µg/mL", "setting": "Streptococcus faecalis", "value": 18, "unit": "mm"}, {"measurement": "zone of inhibition at 10 µg/mL", "setting": "Branhamella catarrhalis; dose .01 mg/ml", "value": 15, "unit": "mm"}, {"measurement": "ABF zone diameter B. subtil.", "setting": "Bacillus subtilis; dose not given", "value": 0, "unit": "mm"}]}
{"molecule": "CCN(CC)CCn1nc2c3c(c([N+](=O)[O-])ccc31)Nc1ccc(O)cc1-2", "note": "[Example 10, 2-[2-(Diethylamino)ethyl]-2,6-dihydro-5-nitropyrazolo[3,4,5 kl]acridin-9-ol, monomethanesulfonate]", "values": [{"measurement": "response vs control in vivo at 0.38 mg/kg", "setting": "[1]; 0.38 mg/kg", "value": 138, "unit": "%"}, {"measurement": "response vs control in vivo at 0.75 mg/kg", "setting": "[1]; 0.75 mg/kg", "value": 149, "unit": "%"}, {"measurement": "response vs control in vivo at 1.5 mg/kg", "setting": "[1]; 1.50 mg/kg", "value": 158, "unit": "%"}, {"measurement": "response vs control in vivo at 3 mg/kg", "setting": "[1]; 3.00 mg/kg", "value": 180, "unit": "%"}, {"measurement": "IC50", "setting": "HCT-8 cells", "value": 0.013, "unit": "µM"}, {"measurement": "zone of inhibition at 1000 µg/mL", "setting": "Sarcina lutea", "value": 14, "unit": "mm"}, {"measurement": "zone of inhibition at 10 µg/mL", "setting": "Alcaligenes viscolactis; dose .01 mg/ml", "value": 15, "unit": "mm"}, {"measurement": "zone of inhibition at 500 µg/mL", "setting": "Streptococcus faecalis", "value": 16, "unit": "mm"}, {"measurement": "zone of inhibition at 100 µg/mL", "setting": "Branhamella catarrhalis", "value": 18, "unit": "mm"}, {"measurement": "zone of inhibition at 100 µg/mL", "setting": "Bacillus subtilis; [2]", "value": 17, "unit": "mm"}]}
{"molecule": "O=[N+]([O-])c1ccc2c3c(nn2CCNCCO)-c2ccccc2Nc13", "note": "[Example 3, 2-[[2-(5-Nitropyrazolo[3,4,5-kl[acridin-2(6H)-yl)ethyl]amino]ethanol, monohydrochloride]", "values": [{"measurement": "response vs control in vivo at 3.12 mg/kg", "setting": "[1]", "value": 122, "unit": "%"}, {"measurement": "response vs control in vivo at 6.25 mg/kg", "setting": "[1]", "value": 132, "unit": "%"}, {"measurement": "response vs control in vivo at 12.5 mg/kg", "setting": "[1]", "value": 158, "unit": "%"}, {"measurement": "response vs control in vivo at 25 mg/kg", "setting": "[1]", "value": 185, "unit": "%"}, {"measurement": "zone of inhibition at 500 µg/mL", "setting": "Sarcina lutea", "value": 14, "unit": "mm"}, {"measurement": "zone of inhibition at 100 µg/mL", "setting": "Alcaligenes viscolactis", "value": 21, "unit": "mm"}, {"measurement": "zone of inhibition at 500 µg/mL", "setting": "Streptococcus faecalis", "value": 15, "unit": "mm"}, {"measurement": "zone of inhibition at 500 µg/mL", "setting": "Branhamella catarrhalis", "value": 25, "unit": "mm"}, {"measurement": "zone of inhibition at 100 µg/mL", "setting": "Bacillus subtilis; [2]", "value": 18, "unit": "mm"}]}
{"molecule": "COc1ccc2c(c1)-c1nn(CCN(C)C)c3ccc([N+](=O)[O-])c(c13)N2", "note": "[Example 5a, 9-methoxy-N,N-dimethyl-5-nitropyrazolo[3,4,5-kl]acridine-2(6H)=-ethanamine, methanesulfonate]", "values": [{"measurement": "response vs control in vivo at 12.5 mg/kg", "setting": "[1]", "value": 181, "unit": "%"}, {"measurement": "response vs control in vivo at 25 mg/kg", "setting": "[1]", "value": 228, "unit": "%"}, {"measurement": "response vs control in vivo at 50 mg/kg", "setting": "[1]", "value": 275, "unit": "%"}, {"measurement": "IC50", "setting": "HCT-8 cells", "value": 0.1, "unit": "µM"}, {"measurement": "zone of inhibition at 1000 µg/mL", "setting": "Sarcina lutea", "value": 16, "unit": "mm"}, {"measurement": "zone of inhibition at 100 µg/mL", "setting": "Alcaligenes viscolactis", "value": 19, "unit": "mm"}, {"measurement": "zone of inhibition at 500 µg/mL", "setting": "Streptococcus faecalis", "value": 15, "unit": "mm"}, {"measurement": "zone of inhibition at 500 µg/mL", "setting": "Branhamella catarrhalis", "value": 21, "unit": "mm"}, {"measurement": "zone of inhibition at 100 µg/mL", "setting": "Bacillus subtilis; [2]", "value": 14, "unit": "mm"}]}
{"molecule": "CCN(CC)CCn1nc2c3c(c([N+](=O)[O-])ccc31)N(C)c1ccc(OC)cc1-2", "note": "[Example 6, N,N-Diethyl-9-methoxy-6-methyl-5-nitropyrazolo[3,4,5-kl]acridine-2(6H)-ethanamine, monomethanesulfonate]", "values": [{"measurement": "response vs control in vivo at 6.25 mg/kg", "setting": "[1]", "value": 142, "unit": "%"}, {"measurement": "response vs control in vivo at 12.5 mg/kg", "setting": "[1]", "value": 151, "unit": "%"}, {"measurement": "response vs control in vivo at 25 mg/kg", "setting": "[1]", "value": 173, "unit": "%"}, {"measurement": "response vs control in vivo at 50 mg/kg", "setting": "[1]", "value": 230, "unit": "%"}, {"measurement": "IC50", "setting": "HCT-8 cells", "value": 0.31, "unit": "µM"}, {"measurement": "zone of inhibition at 500 µg/mL", "setting": "Sarcina lutea", "value": 15, "unit": "mm"}, {"measurement": "zone of inhibition at 100 µg/mL", "setting": "Alcaligenes viscolactis", "value": 15, "unit": "mm"}, {"measurement": "zone of inhibition at 1000 µg/mL", "setting": "Streptococcus faecalis", "value": 15, "unit": "mm"}, {"measurement": "zone of inhibition at 500 µg/mL", "setting": "Branhamella catarrhalis", "value": 16, "unit": "mm"}, {"measurement": "zone of inhibition at 500 µg/mL", "setting": "Bacillus subtilis; Bacillus subtilis, dose .5 mg/ml, read-out: ABF zone diameter B. subtil.", "value": 19, "unit": "mm"}]}
{"molecule": "CCN(CC)CCn1nc2c3c(c([N+](=O)[O-])ccc31)Nc1ccc(OC)cc1-2", "note": "[Example 5, N,N-Diethyl-9-methoxy-5-nitropyrazolo-[3,4,5-kl]acridine-2(6H)-ethanamine, methanesulfonate (1:1)]", "values": [{"measurement": "response vs control in vivo at 3.12 mg/kg", "setting": "[1]", "value": 143, "unit": "%"}, {"measurement": "response vs control in vivo at 6.25 mg/kg", "setting": "[1]", "value": 158, "unit": "%"}, {"measurement": "response vs control in vivo at 12.5 mg/kg", "setting": "[1]", "value": 197, "unit": "%"}, {"measurement": "response vs control in vivo at 25 mg/kg", "setting": "[1]", "value": 242, "unit": "%"}, {"measurement": "IC50", "setting": "HCT-8 cells", "value": 0.12, "unit": "µM"}, {"measurement": "zone of inhibition at 500 µg/mL", "setting": "Sarcina lutea", "value": 14, "unit": "mm"}, {"measurement": "zone of inhibition at 100 µg/mL", "setting": "Alcaligenes viscolactis", "value": 18, "unit": "mm"}, {"measurement": "zone of inhibition at 1000 µg/mL", "setting": "Streptococcus faecalis", "value": 14, "unit": "mm"}, {"measurement": "zone of inhibition at 100 µg/mL", "setting": "Branhamella catarrhalis", "value": 16, "unit": "mm"}, {"measurement": "zone of inhibition at 100 µg/mL", "setting": "Bacillus subtilis; [2]", "value": 15, "unit": "mm"}]}
